Several values for one entry are separate records, joined by “and”; a condition that tells them apart may be missing. Equal values may be shown once. Numbers after ± are expanded uncertainties.
Columns and labels:
[1] = Molar enthalpy of transition or fusion; conditions: Crystal; DSC
[2] = molar heat capacity at constant pressure; conditions: 101.33 kPa, Crystal, DSC
[3] = for vapor or sublimation pressure: Liquid, Transpiration method

N#Cc1cccc2ccccc12 [1-cyanonaphthalene]
Molar enthalpy of transition or fusion [1]: 4.16 ± 0.143 kcal/mol | molar heat capacity at constant pressure ([2]; 268.9 K): 144.7 ± 30 J/K/mol and 156.8 ± 32 J/K/mol | molar heat capacity at constant pressure ([2]; 269.3 K): 148.8 ± 30 J/K/mol and 159.1 ± 32 J/K/mol | molar heat capacity at constant pressure ([2]; 269.7 K): 152.4 ± 31 J/K/mol and 161.1 ± 33 J/K/mol | molar heat capacity at constant pressure ([2]; 270.1 K): 155.6 ± 32 J/K/mol and 162.6 ± 33 J/K/mol | molar heat capacity at constant pressure ([2]; 270.5 K): 158.2 ± 32 J/K/mol and 164.1 ± 33 J/K/mol | molar heat capacity at constant pressure ([2]; 270.9 K): 160.6 ± 33 J/K/mol and 165.4 ± 34 J/K/mol | molar heat capacity at constant pressure ([2]; 271.3 K): 162.5 ± 33 J/K/mol and 166.5 ± 34 J/K/mol | molar heat capacity at constant pressure ([2]; 271.7 K): 164.3 ± 33 J/K/mol and 167.5 ± 34 J/K/mol | molar heat capacity at constant pressure ([2]; 272.1 K): 168.4 ± 34 J/K/mol and 165.9 ± 34 J/K/mol | molar heat capacity at constant pressure ([2]; 272.5 K): 169.2 ± 34 J/K/mol and 167.2 ± 34 J/K/mol | molar heat capacity at constant pressure ([2]; 272.9 K): 168.6 ± 34 J/K/mol and 170 ± 34 J/K/mol | molar heat capacity at constant pressure ([2]; 273.3 K): 169.6 ± 34 J/K/mol and 170.8 ± 35 J/K/mol | molar heat capacity at constant pressure ([2]; 273.6 K): 170.5 ± 35 J/K/mol and 171.4 ± 35 J/K/mol | molar heat capacity at constant pressure ([2]; 274 K): 171.5 ± 35 J/K/mol and 172.1 ± 35 J/K/mol | molar heat capacity at constant pressure ([2]; 274.4 K): 172.1 ± 35 J/K/mol and 172.7 ± 35 J/K/mol | molar heat capacity at constant pressure ([2]; 274.8 K): 172.9 ± 35 J/K/mol and 173.4 ± 35 J/K/mol | molar heat capacity at constant pressure ([2]; 275.2 K): 173.5 ± 35 J/K/mol and 173.9 ± 35 J/K/mol | molar heat capacity at constant pressure ([2]; 275.5 K): 174.2 ± 35 J/K/mol and 174.4 ± 35 J/K/mol | molar heat capacity at constant pressure ([2]; 275.9 K): 174.6 ± 36 J/K/mol and 174.9 ± 36 J/K/mol | molar heat capacity at constant pressure ([2]; 276.3 K): 175.1 ± 36 J/K/mol and 175.4 ± 36 J/K/mol | molar heat capacity at constant pressure ([2]; 276.7 K): 175.5 ± 36 J/K/mol and 175.6 ± 36 J/K/mol | molar heat capacity at constant pressure ([2]; 277 K): 175.9 ± 36 J/K/mol | molar heat capacity at constant pressure ([2]; 277.1 K): 175.7 ± 36 J/K/mol | molar heat capacity at constant pressure ([2]; 277.4 K): 176 ± 36 J/K/mol and 176.3 ± 36 J/K/mol | molar heat capacity at constant pressure ([2]; 277.8 K): 176.2 ± 36 J/K/mol and 176.6 ± 36 J/K/mol | molar heat capacity at constant pressure ([2]; 278.2 K): 177 ± 36 J/K/mol and 176.6 ± 36 J/K/mol | molar heat capacity at constant pressure ([2]; 278.5 K): 177.5 ± 36 J/K/mol and 177.1 ± 36 J/K/mol | molar heat capacity at constant pressure ([2]; 278.9 K): 177.9 ± 36 J/K/mol and 177.6 ± 36 J/K/mol | molar heat capacity at constant pressure ([2]; 279.3 K): 178.4 ± 36 J/K/mol and 178.1 ± 36 J/K/mol | molar heat capacity at constant pressure ([2]; 279.6 K): 179 ± 36 J/K/mol and 178.7 ± 36 J/K/mol | molar heat capacity at constant pressure ([2]; 280 K): 179.6 ± 36 J/K/mol and 179.5 ± 36 J/K/mol | molar heat capacity at constant pressure ([2]; 280.4 K): 180.4 ± 37 J/K/mol and 180.3 ± 37 J/K/mol | molar heat capacity at constant pressure ([2]; 280.7 K): 181.1 ± 37 J/K/mol | molar heat capacity at constant pressure ([2]; 280.8 K): 181.2 ± 37 J/K/mol | molar heat capacity at constant pressure ([2]; 281.1 K): 181.9 ± 37 J/K/mol and 182 ± 37 J/K/mol | molar heat capacity at constant pressure ([2]; 281.5 K): 182.8 ± 37 J/K/mol and 182.9 ± 37 J/K/mol | molar heat capacity at constant pressure ([2]; 281.8 K): 183.7 ± 37 J/K/mol | molar heat capacity at constant pressure ([2]; 281.9 K): 183.8 ± 37 J/K/mol | molar heat capacity at constant pressure ([2]; 282.2 K): 184.7 ± 38 J/K/mol and 184.8 ± 38 J/K/mol | molar heat capacity at constant pressure ([2]; 282.6 K): 185.7 ± 38 J/K/mol and 185.8 ± 38 J/K/mol | molar heat capacity at constant pressure ([2]; 282.9 K): 186.7 ± 38 J/K/mol and 186.6 ± 38 J/K/mol | molar heat capacity at constant pressure ([2]; 283.3 K): 187.9 ± 38 J/K/mol and 187.6 ± 38 J/K/mol | molar heat capacity at constant pressure ([2]; 283.7 K): 188.9 ± 38 J/K/mol and 188.4 ± 38 J/K/mol | molar heat capacity at constant pressure ([2]; 284 K): 190 ± 39 J/K/mol and 189 ± 38 J/K/mol | molar heat capacity at constant pressure ([2]; 284.4 K): 190.9 ± 39 J/K/mol and 189.8 ± 38 J/K/mol | molar heat capacity at constant pressure ([2]; 284.8 K): 191.7 ± 39 J/K/mol and 190.3 ± 39 J/K/mol | molar heat capacity at constant pressure ([2]; 285.1 K): 192.3 ± 39 J/K/mol and 190.7 ± 39 J/K/mol | molar heat capacity at constant pressure ([2]; 285.5 K): 192.8 ± 39 J/K/mol and 191 ± 39 J/K/mol | molar heat capacity at constant pressure ([2]; 285.9 K): 193.1 ± 39 J/K/mol and 191.4 ± 39 J/K/mol | molar heat capacity at constant pressure ([2]; 286.2 K): 193.2 ± 39 J/K/mol and 191.6 ± 39 J/K/mol | molar heat capacity at constant pressure ([2]; 286.6 K): 193.3 ± 39 J/K/mol and 191.7 ± 39 J/K/mol | molar heat capacity at constant pressure ([2]; 286.9 K): 193.2 ± 39 J/K/mol and 192 ± 39 J/K/mol | molar heat capacity at constant pressure ([2]; 287.3 K): 193.3 ± 39 J/K/mol and 192.4 ± 39 J/K/mol | molar heat capacity at constant pressure ([2]; 287.7 K): 193.2 ± 39 J/K/mol and 192.6 ± 39 J/K/mol | molar heat capacity at constant pressure ([2]; 288 K): 193 ± 39 J/K/mol | molar heat capacity at constant pressure ([2]; 288.4 K): 192.8 ± 39 J/K/mol and 193.1 ± 39 J/K/mol | molar heat capacity at constant pressure ([2]; 288.8 K): 192.4 ± 39 J/K/mol and 193.1 ± 39 J/K/mol | molar heat capacity at constant pressure ([2]; 289.1 K): 192.1 ± 39 J/K/mol and 193.1 ± 39 J/K/mol | molar heat capacity at constant pressure ([2]; 289.5 K): 191.7 ± 39 J/K/mol and 193.1 ± 39 J/K/mol | molar heat capacity at constant pressure ([2]; 289.8 K): 191.4 ± 39 J/K/mol and 193.1 ± 39 J/K/mol | molar heat capacity at constant pressure ([2]; 290.2 K): 191.3 ± 39 J/K/mol and 193 ± 39 J/K/mol | molar heat capacity at constant pressure ([2]; 290.6 K): 191.3 ± 39 J/K/mol and 192.9 ± 39 J/K/mol | molar heat capacity at constant pressure ([2]; 290.9 K): 191.6 ± 39 J/K/mol and 192.9 ± 39 J/K/mol | molar heat capacity at constant pressure ([2]; 291.3 K): 191.9 ± 39 J/K/mol and 192.9 ± 39 J/K/mol | molar heat capacity at constant pressure ([2]; 291.7 K): 192.2 ± 39 J/K/mol and 193.1 ± 39 J/K/mol | molar heat capacity at constant pressure ([2]; 292 K): 192.7 ± 39 J/K/mol and 193.5 ± 39 J/K/mol | molar heat capacity at constant pressure ([2]; 292.4 K): 193.3 ± 39 J/K/mol and 193.6 ± 39 J/K/mol | molar heat capacity at constant pressure ([2]; 292.8 K): 193.8 ± 39 J/K/mol and 194.2 ± 39 J/K/mol | molar heat capacity at constant pressure ([2]; 293.1 K): 194.5 ± 40 J/K/mol and 194.6 ± 40 J/K/mol | molar heat capacity at constant pressure ([2]; 293.5 K): 195.3 ± 40 J/K/mol and 195.4 ± 40 J/K/mol | molar heat capacity at constant pressure ([2]; 293.8 K): 196.1 ± 40 J/K/mol | molar heat capacity at constant pressure ([2]; 294.2 K): 196.8 ± 40 J/K/mol and 196.7 ± 40 J/K/mol | molar heat capacity at constant pressure ([2]; 294.6 K): 197.8 ± 40 J/K/mol and 197.4 ± 40 J/K/mol | molar heat capacity at constant pressure ([2]; 294.9 K): 198.7 ± 40 J/K/mol and 198.1 ± 40 J/K/mol | molar heat capacity at constant pressure ([2]; 295.3 K): 199.6 ± 40 J/K/mol and 198.9 ± 40 J/K/mol | molar heat capacity at constant pressure ([2]; 295.7 K): 200.6 ± 41 J/K/mol and 199.8 ± 41 J/K/mol | molar heat capacity at constant pressure ([2]; 296 K): 201.6 ± 41 J/K/mol and 200.6 ± 41 J/K/mol | molar heat capacity at constant pressure ([2]; 296.4 K): 202.5 ± 41 J/K/mol and 201.7 ± 41 J/K/mol | molar heat capacity at constant pressure ([2]; 296.8 K): 203.6 ± 41 J/K/mol and 202.9 ± 41 J/K/mol | vapor or sublimation pressure ([3]; 317.4 K): 0.00232 ± 0.00011 kPa | vapor or sublimation pressure ([3]; 321.3 K): 0.00324 ± 0.00015 kPa | vapor or sublimation pressure ([3]; 323.2 K): 0.00381 ± 0.00018 kPa | vapor or sublimation pressure ([3]; 326.3 K): 0.00461 ± 0.00021 kPa | vapor or sublimation pressure ([3]; 328.2 K): 0.00556 ± 0.00027 kPa | vapor or sublimation pressure ([3]; 331.2 K): 0.00702 ± 0.00033 kPa | vapor or sublimation pressure ([3]; 333.3 K): 0.00785 ± 0.00037 kPa | vapor or sublimation pressure ([3]; 335.2 K): 0.00943 ± 0.00045 kPa | vapor or sublimation pressure ([3]; 338.2 K): 0.0116 ± 0.0005 kPa | vapor or sublimation pressure ([3]; 340.2 K): 0.01358 ± 0.00064 kPa | vapor or sublimation pressure ([3]; 343.2 K): 0.01719 ± 0.00079 kPa | vapor or sublimation pressure ([3]; 345.1 K): 0.01921 ± 0.00089 kPa | vapor or sublimation pressure ([3]; 348.1 K): 0.02329 ± 0.0011 kPa | vapor or sublimation pressure ([3]; 351.1 K): 0.02893 ± 0.0013 kPa | vapor or sublimation pressure ([3]; 353.2 K): 0.03229 ± 0.0014 kPa | Normal melting temperature ([3]; Crystal, DTA): 34 ± 1.3 °C

— the NIST ThermoML archive (doi:10.1016/j.tca.2018.07.026)
